In patent publication US20180264080A1, “TOPICAL APPLICATIONS OF Kv1.3 CHANNEL BLOCKING PEPTIDES TO TREAT SKIN INFLAMMATION” (KINETA ONE, LLC, priority 2015, published 2018):

Assay: Tissue penetration of topically applied peptide by immunohistochemistry (anti-ShK mAb P3B3) in rat pinna
Type: in vivo
Details: 10 doses, rat pinna sections 48 hours post-challenge (DTH study)
Description: This example describes the method of detection of toxin-based therapeutic peptides of the disclosure, such as ShK-186 (SEQ ID NO:217) or ShK-198 (SEQ ID NO:210) penetration after topical administration.
Materials: All Bond reagents such Bond HIER 1 (Citrate), Bond HIER 2 (EDTA), Bond Primary antibody diluent, Bond dewax solution, Bond Wash solution, Bond Polymer Refine (DAB) detection rack including peroxide block, polymer/hematoxylin, Bond Alcohol and the Leica Bond Automated Immunostainer were purchased from Leica-microsystems.
ShK specific antibody: Hybridoma fusions were performed using the isolated splenocytes from ShK-186 immunized mice and clones producing specific monoclonal antibodies against ShK-186 and ShK-198 were isolated. These cultures were subjected to a second cloning process using the limited dilution method and selected for stable expression of the specific mAb. Stable clones were expanded, tested for antibody specificity to ShK-186 (and ShK parent) by ELISA, and their isotypes were identified using the Roche Isostrips and confirmed by ELISA. For ELISA testing, culture supernatants were diluted from 1:4-1:256 and the titer was determined to be the last dilution 2 standard deviations above background. Clone P3B3-G11-C12 is purified from hybridoma extinction cultures and concentrated to 1 mg/ml. […]

Row | Substance | Tissue penetration of the peptide into rat pinna (dark staining with ShK specific monoclonal antibody P3B3) (5% solution of ShK-198, topical) | Tissue penetration of the peptide into rat pinna (dark staining with ShK specific monoclonal antibody P3B3) (1% solution of ShK-186, topical)
1 | (L-Tyr)-AEEAc-RSCIDTIPKSRCTAFQCKHSMKYRLSFCRKTCGTC-amide [ShK-198] | perfuse and extensive penetration | 
2 | (L-PhosphoTyr)-AEEAc-RSCIDTIPKSRCTAFQCKHSMKYRLSFCRKTCGTC-amide [ShK-186] |  | perfuse and extensive penetration
